Measured values taken from patent US12643867B2, “Compositions and uses thereof” (University of Virginia Patent Foundation, priority 2017, dated 2026).

Tests used:
[1] = test system: M3K2/M3K3 (Mitogen-activated protein kinase kinase kinase 2); assay: SILAC LC-MS ATP acyl phosphate probe competition, native kinases in HEK293T; format: binding, Homo sapiens; conditions: site Lys2; ATP 1 mM; Ketanserin, Ritanserin 100 μM; RF001 1 mM
Experimental: Proteomes were diluted to 2 mg/ml in kinase buffer. The light and heavy proteomes (0.5 mg, 250 μL total reaction volume) were pre-treated with vehicle or compound, respectively (5 μL, DMSO (light) or 50× stock in DMSO (heavy)), mixed gently, and incubated at 25° C. for 30 min. […] After incubation, matched light and heavy proteomes were transferred and mixed in a 1:1 ratio in a two-dram vial containing 4:1:3 MeOH/CHCl3/H2O (2 mL MeOH, 500 AL CHCl3, 1.5 mL H2O) for extraction of proteins to remove excess probe, quickly vortexed, and centrifuged at 1,400×g for 3 min to pellet protein. Organic and aqueous layers were removed using a Pasteur pipette, and the protein pellet was transferred to a screw-top tube in 600 μL MeOH. A second extraction was performed by adding CHCl3 (150 μL) and H2O (600 μL) to each sample, vortexed, and centrifuged at 1,400×g for 3 min to pellet protein. Organic and aqueous layers were removed by pipetting. MeOH added to pellet (600 μL) and pellets were re-suspended by sonication (3×1 sec pulse, 20% amplitude) for a final extraction. Samples were then centrifuged at 17,000×g for 5 min to pellet protein and MeOH was removed by pipetting. The pellets were re-suspended in 10 M urea/25 mM ammonium bicarbonate ([…]), brought to a final volume of 1 mL with 25 mM ammonium bicarbonate, reduced with 10 mM DTT for 15 min at 65° C. allowed to cool, and then alkylated with 40 mM iodoacetamide for 30 min at 25° C. in the dark. To desalt the samples, each was transferred to a two-dram glass vial, and to the vial 4:1:2 MeOH/CHCl3/H2O (2 mL MeOH, 500 AL CHCl3, 1 mL H2O) was added. The vials were vortexed quickly, spun at 1.400×g for 3 min to pellet protein, and aqueous and organic layers were removed using a Pasteur pipette. The resulting protein pellet was transferred to a screw-top tube in 600 μL MeOH, and then CHCl3 (150 μL) and HO (600 μL) were added to extract protein a second time. […]
The peptide samples were analyzed by liquid chromatography-mass spectrometry. […]

[2] = molecular target: Gamma (DGK gamma) (Homo sapiens, UniProt P49619); assay: DGK isoform % Activity screen; format: biochemical
Chain of Gamma (DGK gamma) (P49619 whole entry, canonical isoform): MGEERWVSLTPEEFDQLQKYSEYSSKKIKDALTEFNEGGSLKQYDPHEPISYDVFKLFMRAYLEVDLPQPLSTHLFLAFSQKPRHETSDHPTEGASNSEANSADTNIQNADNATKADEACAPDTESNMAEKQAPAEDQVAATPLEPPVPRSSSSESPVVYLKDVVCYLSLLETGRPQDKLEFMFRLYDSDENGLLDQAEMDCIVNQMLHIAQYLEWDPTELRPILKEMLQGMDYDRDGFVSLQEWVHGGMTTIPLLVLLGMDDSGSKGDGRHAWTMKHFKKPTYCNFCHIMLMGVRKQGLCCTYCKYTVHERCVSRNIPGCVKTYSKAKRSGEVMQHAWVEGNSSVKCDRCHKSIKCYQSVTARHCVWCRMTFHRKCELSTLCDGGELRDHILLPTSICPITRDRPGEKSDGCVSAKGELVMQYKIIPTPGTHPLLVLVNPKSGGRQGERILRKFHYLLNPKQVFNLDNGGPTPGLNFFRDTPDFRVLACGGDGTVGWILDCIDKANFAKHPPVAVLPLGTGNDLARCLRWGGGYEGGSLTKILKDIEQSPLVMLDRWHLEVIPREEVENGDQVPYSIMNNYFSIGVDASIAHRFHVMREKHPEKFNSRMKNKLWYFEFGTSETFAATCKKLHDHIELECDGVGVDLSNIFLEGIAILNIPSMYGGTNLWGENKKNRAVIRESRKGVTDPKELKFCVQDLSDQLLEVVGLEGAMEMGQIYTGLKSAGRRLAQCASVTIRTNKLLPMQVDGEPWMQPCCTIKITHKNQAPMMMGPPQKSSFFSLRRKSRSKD

[3] = molecular target: Alpha (DGK alpha; only in reference sheet cells) (Rattus norvegicus, UniProt P51556); assay: DGK isoform % Activity screen; format: biochemical; conditions: for activity at 100 µM: read-out: 100 uM % Activity (section without isoform head; Alpha)
Chain of Alpha (DGK alpha; only in reference sheet cells) (P51556 whole entry, canonical isoform): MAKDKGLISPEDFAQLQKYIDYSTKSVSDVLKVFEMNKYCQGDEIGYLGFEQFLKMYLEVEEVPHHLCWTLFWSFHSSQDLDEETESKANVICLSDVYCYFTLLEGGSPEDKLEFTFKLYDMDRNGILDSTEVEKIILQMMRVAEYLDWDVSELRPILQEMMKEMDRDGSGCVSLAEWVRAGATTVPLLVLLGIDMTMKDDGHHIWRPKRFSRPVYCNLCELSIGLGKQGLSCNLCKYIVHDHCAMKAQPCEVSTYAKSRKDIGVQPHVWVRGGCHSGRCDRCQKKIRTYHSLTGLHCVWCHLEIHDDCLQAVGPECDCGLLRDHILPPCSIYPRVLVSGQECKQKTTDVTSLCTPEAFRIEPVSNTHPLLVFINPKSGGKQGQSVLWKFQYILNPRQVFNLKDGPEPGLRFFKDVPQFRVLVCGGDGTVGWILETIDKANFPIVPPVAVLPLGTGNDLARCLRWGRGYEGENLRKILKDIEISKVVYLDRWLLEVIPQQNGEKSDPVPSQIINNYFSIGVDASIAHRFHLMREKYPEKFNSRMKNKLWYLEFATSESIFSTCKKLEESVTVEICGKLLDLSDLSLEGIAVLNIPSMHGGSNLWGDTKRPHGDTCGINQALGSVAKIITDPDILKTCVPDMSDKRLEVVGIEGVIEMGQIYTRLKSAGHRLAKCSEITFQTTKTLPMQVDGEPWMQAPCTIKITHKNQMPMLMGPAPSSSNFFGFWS

Structure (SMILES)	SILAC ratio, M3K2/M3K3 probe-modified peptide [1]	activity at 100 µM [2] [%]	activity at 100 µM [3] [%]	activity at 1000 µM ([2]; read-out: 1 mM % Activity, Gamma) [%]	activity at 1000 µM ([3]; read-out: 1 mM % Activity (section without isoform head; Alpha)) [%]
O=C(c1ccc(F)cc1)C1CCN(CCn2c(=O)[nH]c3ccccc3c2=O)CC1 [Ketanserin]	1.1	24	99		
Fc1ccc(C(=C2CCNCC2)c2ccc(F)cc2)cc1 [RF001, 4-(Bis(4-fluorophenyl)methylene) piperidine]	1.0	82	75	5	0
Cc1nc2sccn2c(=O)c1CCN1CCC(=C(c2ccc(F)cc2)c2ccc(F)cc2)CC1 [Ritanserin]	1.2	55	52		
